Measurements reported in article PMC9745132, “Visualization of real-time receptor endocytosis in dopamine neurons enabled by NTSR1-Venus knock-in mice” (Frontiers in Cellular Neuroscience, 2022).
Where “and” joins values, the source holds several entries; their conditions need not be identical. Equal entries are not always repeated. Structures can show the parent of a compound that is named as a salt. Where two headings read alike, the source gives them in different places. *1 amine or outer side, *2 acyl side, *3 side chain or, on linkers, in order; H or OH if unused. Where a SMILES comes first, the peptide text is derived from it. [ ]: non-standard residue; d: D form. X1 = NCCCC[C@H](N)CN([C@@H](CCCCN)C(=O)[*:2])[*:1]; Tle = CC(C)(C)[C@H](N)C(=O)O

Key:
Type in all cases: cell-based
NTSR1 = target: T1, NTSR1 (Mus musculus, UniProt O88319); experiment: Gq activation ebBRET (Gq EMTA, p63RhoGEF-RlucII / rGFP-CAAX) in HEK293 cells, untagged NTSR1; conditions: mean ± SEM
T1 construct: expressed in transfected cells; host or cells: HEK293 (HEK293SL)
Source text: (§1) The mouse coding sequence of NTSR1 was PCR amplified from pCMV6-mNTSR1 (Origene, Rockville, MD, USA) and subcloned upstream from the IRES feature with a STOP codon before IRES into pIRES (Invitrogen, Waltham, MA, USA) and pIRES-Venus vector previously described ([Hamdan et al., 2005]) resulting in expression of either untagged NTSR1 or NTSR1-Venus. […] The pIRES vector was used The rGFP-CAAX BRET and Gq GEMTA biosensors construct were generated as previously described ([Namkung et al., 2016]; [Avet et al., 2022]).
(§2) HEK293 clonal cell line (HEK293SL cells), hereafter referred as HEK293 cells, were a gift from S. Laporte (McGill University, Montreal, Quebec, Canada) and previously described ([Namkung et al., 2016]). Cells were maintained in Dulbecco’s Modified Eagle Medium (DMEM, Wisent, Saint-Jean-Baptiste, QC, Canada) supplemented with 10% fetal bovine serum (FBS, Wisent) and 1% antibiotics [100 U/mL penicillin and 100 μg/mL streptomycin (PS); Wisent]. Cells were grown at 37°C in 5% CO2 and 90% humidity and checked for mycoplasma contamination. […] The total quantity of DNA was completed at 1 μg with salmon sperm DNA (Invitrogen, Waltham, MA, USA). […]
(§3) Forty-eight hours post-transfection, cells were washed once with phosphate-buffered saline (PBS) then incubated 1 h at 37°C in Tyrode buffer (137 mM NaCI, 0.9 mM KCI, 1 mM MgCI2, 1 1.9 mM NaHCO3, 3.6 mM NaH2PO4, 25 mM HEPES, 5.5 mM Glucose, and 1 mM CaCI2, pH 7.4). […] Bioluminescence resonance energy transfer (BRET) was then measured between RlucII (BRET energy donor) and rGFP (enhanced bystander ebBRET acceptor)–tagged proteins. BRET values were read for 1 s per well using a Mithras™ LB940 Multimode Microplate Reader (Berthold Technologies, Bad Wildbad, Germany) for concentration–response curves. ebBRET values were obtained by calculating the ratio of the light emitted by the energy acceptor over the light emitted by the energy donor (donor 410 ± 70 nm/acceptor 515 ± 20 nm). […] They were then fitted and analyzed in GraphPad Prism (v9.0, GraphPad Software, Inc., San Diego, CA, USA). […]

NTSR1-Venus [1] = target: T2, NTSR1-Venus (Mus musculus, UniProt O88319); experiment: Multiphoton imaging of NTSR1-Venus internalization in acute SN/VTA brain slices; conditions: 10 μM on slices recovered in 1 μM SR48692
T2 construct: monitoring endogenous NTSR1-Venus receptor endocytosis could differentiate NTSR1 agonists; endogenous in cells; host or cells: primary hippocampal neurons from homozygous NTSR1-Venus knock-in mice (C57BL/6N background)
Procedure: Male and female Ntsr1^Venus/Venus mice aged 5 weeks were anesthetized, and 250 μm-thick coronal slices containing substantia nigra pars compacta and ventral tegmental area were prepared. Cutting solution contained (in mM): 87 NaCl, 25 NaHCO3, 25 glucose, 75 sucrose, 2.5 KCl, 1.25 NaH2PO4, 0.5 CaCl2, and 7 MgCl2; bubbled with 5% CO2/95%O2; 4°C. Following cutting, slices were incubated in the same solution for 30 min at 33°C. For control experiments, slices were subsequently incubated in the same solution at room temperature until imaging. For antagonist experiments, slices were subsequently incubated in cutting solution with 1 μM SR48962 until imaging. SR48962 was prepared as a 1 mM stock in water.
Imaging solution referred to as aCSF contained (in mM): 125 NaCl, 2.5 KCl, 2 CaCl2, 1 MgCl2, 25 NaHCO3, 1.25 NaH2PO4, 25 glucose; bubbled with 5% CO2/95% O2; 31–34°C, ∼310 mOsm. For antagonist-only experiments, 1 μM SR48962 was added to the imaging solution. For antagonist plus agonist experiments, a baseline image was taken with no NTSR1 agonist or antagonist in the imaging solution, and subsequently, 10 μM PD149163 [prepared from a stock solution in water] was added to the imaging solution. As a precautionary measure, all components that were exposed to antagonist were rinsed first with 70% ethanol and then water. All components that were exposed to agonist were replaced between experiments.
For two-photon laser scanning microscopy (2PLSM), a 2-photon source (Coherent Ultra II, Santa Clara, CA, USA) was tuned to 920 nm for imaging. […] Both epi and transfluorescence were detected with R9110 photomultiplier tubes (Hamamatsu, Shizuoka, Japan). Laser power measured at the focal plane under the objective was between 8 and 34 mW. […]
To test whether NTSR1 receptors are indeed being bound by endogenous ligand in acute slice, we compared NTSR1 distribution in slices treated with the NTSR1 specific antagonist, SR48692 ([Gully et al., 1993]). […] NTSR1-Venus puncta were then quantified in the acquired image projections by counting vesicle-sized particles (Figure 5E). […]

NTSR1-Venus [2] = target: T2, NTSR1-Venus; experiment: Gq activation ebBRET (Gq EMTA, p63RhoGEF-RlucII / rGFP-CAAX) in HEK293 cells, Venus tagged NTSR1; conditions: mean ± SEM
Source text: as §1, §2, §3

NTSR1-RlucII = target: T3, NTSR1-RlucII (Mus musculus, UniProt O88319); experiment: NTSR1-RlucII internalization ebBRET assay (NTSR1-RlucII donor, rGFP-CAAX acceptor) in HEK293 cells
T3 construct: expressed in transfected cells; host or cells: HEK293 (HEK293SL)
Procedure: Cells were maintained in Dulbecco’s Modified Eagle Medium (DMEM, Wisent, Saint-Jean-Baptiste, QC, Canada) supplemented with 10% fetal bovine serum (FBS, Wisent) and 1% antibiotics [100 U/mL penicillin and 100 μg/mL streptomycin (PS); Wisent]. Cells were grown at 37°C in 5% CO2 and 90% humidity and checked for mycoplasma contamination. Two days prior to experiments, cells were trypsinized (Wisent) and 35,000 cells were transfected with 1 μg of total DNA containing the appropriate expression vectors/biosensors. The total quantity of DNA was completed at 1 μg with salmon sperm DNA (Invitrogen, Waltham, MA, USA). Transfection was performed using the transfecting agent polyethylenimine 25 kD linear (PEI; Polysciences, Warrington, PA, USA) at a ratio of 3:1 PEI/DNA. Cells were then immediately plated onto poly-ornithine (Sigma-Aldrich) coated 96-well white culture plates (PerkinElmer, Waltham, MA, USA).
Forty-eight hours post-transfection, cells were washed once with phosphate-buffered saline (PBS) then incubated 1 h at 37°C in Tyrode buffer (137 mM NaCI, 0.9 mM KCI, 1 mM MgCI2, 1 1.9 mM NaHCO3, 3.6 mM NaH2PO4, 25 mM HEPES, 5.5 mM Glucose, and 1 mM CaCI2, pH 7.4). Cells were then treated with the ligands and prior to measurement treated with the substrate (5 min with 2.5 μM Coelantarazine 400a). Bioluminescence resonance energy transfer (BRET) was then measured between RlucII (BRET energy donor) and rGFP (enhanced bystander ebBRET acceptor)–tagged proteins. BRET values were read for 1 s per well using a Mithras™ LB940 Multimode Microplate Reader (Berthold Technologies, Bad Wildbad, Germany) for concentration–response curves. ebBRET values were obtained by calculating the ratio of the light emitted by the energy acceptor over the light emitted by the energy donor (donor 410 ± 70 nm/acceptor 515 ± 20 nm). Data were collected using the MicroWin 2000 software (Berthold Technologies, Bad Wildbad, Germany). They were then fitted and analyzed in GraphPad Prism (v9.0, GraphPad Software, Inc., San Diego, CA, USA).
A decrease in BRET indicates receptor loss from the plasma membrane. […] Data are expressed as raw BRET signal (Mean ± SEM) from five independent experiments.
We set-up an enhanced bystander bioluminescence energy resonance transfer (ebBRET) assay by fusing RlucII at the NTSR1 C-tail and expressing this construct together with rGFP-CAAX in HEK293 cells (Figure 1A).

NTSR1-Venus [3] = target: T2, NTSR1-Venus; experiment: NTSR1-Venus endocytosis in primary hippocampal neurons (Venus/EEA1 colocalization; live confocal imaging)
Procedure: To isolate hippocampal neurons, P0 pups were removed from the cage of NTSR1-Venus homozygous knock-in breeding pairs. […] Neurons were plated on Poly-D-Lysine (Sigma) coated surfaces at 100,000 cells per 12 mm coverslip (NeuVitro, Camas, WA, USA) in a 24-well plate for immunostaining or 50,000 cells per well of an 8 well chamber slide (Ibidi, Grafelfing, Germany) for calcium measurements. Plating media [Neurobasal A (Gibco, Grand Island, NY, USA), 1% FBS (Fisher Scientific), 2% B-27 (Gibco, Grand Island, NY, USA), 0.5 mM GlutaMAX (Gibco, Grand Island, NY, USA), and 1x Penicillin/Streptomycin (Invitrogen, Waltham, MA, USA)] was exchanged 1 h after plating to maintenance media (Neurobasal A, 2% B-27, 0.5 mM GlutaMAX, and 1x Penicillin/Streptomycin).

T3 sequence (O88319 whole entry): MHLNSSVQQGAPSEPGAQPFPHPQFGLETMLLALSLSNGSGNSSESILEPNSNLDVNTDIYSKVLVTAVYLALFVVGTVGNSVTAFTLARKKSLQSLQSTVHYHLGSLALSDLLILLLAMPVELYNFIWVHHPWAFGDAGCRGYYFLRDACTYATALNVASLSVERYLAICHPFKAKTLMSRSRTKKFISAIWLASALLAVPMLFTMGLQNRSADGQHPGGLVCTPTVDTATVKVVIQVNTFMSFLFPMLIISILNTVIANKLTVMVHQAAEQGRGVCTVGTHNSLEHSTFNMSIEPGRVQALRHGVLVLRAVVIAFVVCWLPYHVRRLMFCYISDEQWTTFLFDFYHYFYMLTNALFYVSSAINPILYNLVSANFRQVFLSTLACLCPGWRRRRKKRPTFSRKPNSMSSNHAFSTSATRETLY
T1 sequence (O88319 whole entry): as above
T2 sequence (O88319 whole entry): as above

- EC50 (NTSR1; given as LogEC50 (negative sign), read-out: Potency [LogEC50 (M)], Gq activation, NTSR1 (converted)): 2.81e-08 M
- EC50 (NTSR1-Venus [2]; given as LogEC50 (negative sign), read-out: Potency [LogEC50 (M)], Gq activation, NTSR1-Venus (converted)): 3.05e-08 M
- EC50 (NTSR1-RlucII; NTSR1-RlucII, read-out: potency to induce NTSR1 internalization): 3.07e-07 M
- EC50 (NTSR1-RlucII; given as LogEC50 (negative sign), mean ± SEM, five independent experiments, read-out: Potency [LogEC50 (M)], NTSR1-RlucII internalization (converted)): 3.07e-07 M
- time course of NTSR1-Venus in early endosomes (NTSR1-Venus [3]; 1 μM, 5 to 60 min): remained stable
- NTSR1-Venus internalization, live confocal imaging (NTSR1-Venus [3]; 1 μM, 20 min live imaging of hippocampal neurons): robust internalization of the receptor
- percentage of endosomes containing NTSR1 after 60 min, PD149163 vs neurotensin (NTSR1-Venus [3]; 1 μM, 60 min): significantly higher percentage
- NTSR1-Venus redistribution to endosomes (% EEA1 vesicles) (NTSR1-Venus [3]; 1 μM, within the first 5 min of agonist treatment): 92.7% ± 6.9
- EC50 (NTSR1-Venus [3]; Ntsr1^Venus/Venus hippocampal neurons, 5 min of agonist treatment, read-out: EC50, NTSR1-Venus endocytosis (ratio of Venus and EEA1 positive to total EEA1 positive endosomes)): 465 nM
SMILES: CCOC(=O)[C@H](CC(C)C)NC(=O)[C@@H](NC(=O)[C@H](Cc1c[nH]c2ccccc12)NC(=O)[C@@H]1CCCN1C(=O)[C@H](CCCCN)NC[C@@H](N)CCCCN)C(C)(C)C [PD149163, PD149163 tetrahydrochloride hydrate] (H-[X1]PW[Tle]L-OEt; N-terminus and C-terminus assumed)
- Efficacy (Raw BRET), Gq activation, NTSR1 (NTSR1): 0.220 Raw BRET and 0.220 ± 0.013 Raw BRET
- vesicle-sized particle counts (NTSR1-Venus puncta) vs antagonist-only treated slices (NTSR1-Venus [1]): significantly higher than antagonist-only treated slices at 15, 30, 45, and 60 min
- vesicle-sized particle counts (NTSR1-Venus puncta) vs control slices (NTSR1-Venus [1]): significantly higher than controls at 30, 45, and 60 min
- Efficacy (Raw BRET), Gq activation, NTSR1-Venus (NTSR1-Venus [2]): 0.476 Raw BRET and 0.476 ± 0.009 Raw BRET
- Efficacy (Raw BRET), NTSR1-RlucII internalization (NTSR1-RlucII; decrease in BRET = receptor loss from membrane, mean ± SEM): −0.245 Raw BRET and −0.245 ± 0.008 Raw BRET
